Reference: patent US7067532B2, “Substituted quinolines as antitumor agents” (AstraZeneca, priority 2000, dated 2006)

Test system: HT29 human colon tumour cells
Test: Cell proliferation assays
Type: cell-based
Conditions: HT-29, 72 hours
Method: Cell Proliferation Assays Cells were seeded into multi-well plates at 20000–40000 cells/ml in growth medium containing 5% FCS and incubated overnight at 37° C. The compounds were prepared in fresh medium at an appropriate concentration and added to the wells containing the cells. These were then incubated for a further 72 hours. Cells were then either removed from the wells by incubating with trypsin/EDTA and counted using a Coulter counter, or treated with XTT/PMS in PBSA and optical densities read at 450 nm.

IC50: 1300 nM
Compound: CNC(=O)COc1ccccc1Oc1ccc(Nc2c(C#N)cnc3cc(NCCCN4CCOCC4)c(OC)cc23)cc1 [Compound 11]
